# Values quoted from earlier work as cited in US11162142B2, “BCR-ABL1 splice variants and uses thereof” (Quest Diagnostics Investments Incorporated, priority 2010, dated 2021).
# Where a name gives a salt, the structure may show the parent alone. Read-outs that look alike come from different tables or passages of the source.
# Legend:
# CML = conditions: all stages of CML
smiles,measurement,setting,value
"Cc1ccc(NC(=O)c2ccc(CN3CCN(C)CC3)cc2)cc1Nc1nccc(-c2cccnc2)n1 [imatinib, imatinib mesylate]",Primary resistance (failure to achieve any hematologic response) rate,patients with CML; accelerated-phase CML,9%
same,Secondary resistance (hematologic recurrence) rate,patients with CML; accelerated-phase CML,32%
same,Primary resistance (failure to achieve any hematologic response) rate,patients with CML; blast-phase CML,51%
same,Secondary resistance (hematologic recurrence) rate,patients with CML; blast-phase CML,41%
same,Primary resistance (failure to achieve any hematologic response) rate,patients with CML; chronic-phase CML,3%
same,Secondary resistance (hematologic recurrence) rate,patients with CML; chronic-phase CML,22%
same,Effectiveness of monotherapy,CML,effective for all stages of CML
